# Source: patent publication EP2787958B1, “CHELIDONIUM MAJUS EXTRACTS AND THEIR USE IN THE TREATMENT OF SKIN DISORDERS AND PROMOTION OF SKIN REGENERATION” (priority 2011, dated 2013)
# Where two headings read alike, the source gives them in different places.
# How the values were obtained:
# interleukin 1β (IL-1β) = experiment: Inflammatory cytokines in cell supernatant (Mosaic ELISA microarray): IL-1β; type: cell-based, Human; details: for IL-1β ng/(ml* No. of cells from photo) ± SD: 24 hours; for IL-1β production (effect in words): 1-10 µM
# Description: (§1) The inflammatory cytokines, CD40 ligand (CD40L), interferon γ (INF-γ), interleukin 1α (IL-1α), interleukin 1β (IL-1β), interleukin 6 (IL-6), interleukin 8 (IL-8), interleukin 17 (IL-17) and tumour necrosis factor α (TNF-α) were determined qualitatively and quantitatively. Each measurement was performed in duplicate using a Mosaic™ ELISA protein microarray assay system from R&D System in accordance with the supplier's instructions. Furthermore, with the aim of obtaining a correlation model between light signal intensity and cytokine concentration, a calibration curve using 6 concentrations was performed for each of them. Analysis of the data was performed using the dedicated Q-View™ Imager software package from Quansys Biosciences
# interleukin 6 (IL-6) = experiment: Inflammatory cytokines in cell supernatant (Mosaic ELISA microarray): IL-6; type: cell-based, Human; details: for IL-6 ng/(ml* No. of cells from photo) ± SD: 24 hours; for IL-6 production (effect in words): 1-10 µM
# Description: as §1
# [1] = Anti-radical activity (decay of the DPPH radical); type: biochemical; details: for Anti-radical (skin protective): 24 hours
# Description: With regard to assays aimed at evaluating anti-radical activity, a chemical test was used where the decay of the diphenylpicrylhydrazyl (DPPH) radical is assessed in the absence or in the presence of the test substances. Indeed, the DPPH radical is used to test the ability of substances to act as free radical scavengers. DPPH in solution has a purple colour with a maximum absorbance peak at 517 nm which changes to yellow-colourless when this radical extracts a hydrogen atom from a radical scavenger to give rise to the reduced form DPPH-H. The assay has been conducted in quadruplicate in 96 well microplates (SARSTEDT Tissue Culture Plate 96-well flat bottom cell+). 50 µl of an ethanol solution of the test substance at 2X concentration and then 50 µl of a 200 µM solution of DPPH (MW 168,18, Aldrich 2,2-di(4-tert-octylphenyl)-1-picrylhydrazyl, free radical Lot# MKBF7574V Cat N° 257621-100 mg) have been added to each well of the microplate. A positive control consisting of 0.1 mM vitamin C and a negative control consisting of ethanol alone were included in each microplate. After 30 minutes from the addition of DPPH, photographs of the plates were taken (Canon PowerShot A610 5.0 Mpixels) and read spectrophotometrically at 530 nm.
# Based on the analysis of the results reported in Table 9, some substances were selected for further characterisation of their anti-radical activity. For the selected substances, dose-activity curves were obtained and the IC50 value were computed using a non-linear regression model with the Hill equation at variable slope. Such substances had been selected due to both their anti-radical potential and the easiness of their isolation/production. The selection of substances was made in view of cosmetics applications. Moreover their activity on human dermal fibroblasts (HDF) is expected to be useful also for the development of dermatological medications. The selected substances are discussed below.
# HDF cells [2] = experiment: Summary of uses and toxic effects deduced from the cell assays (Table 1); type: cell-based, Human; details: for Anti-fibrotic (prevention of scar formation, also from acne) / Cytoprotective (antioxidant, anti-inflammatory and anti-ageing; useful also in the treatment of acne) / Cytotoxic / Irritant / Wound-healing: 24 hours
# Description: Antiradical (skin protective): this is deduced from the free radical scavenger effects.
# Revitalizing: this is deduced from the increased mitochondrial dehydrogenase effect.
# Cytoprotective, with regard to oxidative damage (antioxidant, anti-inflammatory and anti-ageing): this is deduced from antagonising the stimulation of IL-1β and/or IL-6 induced by 100 µM H2O2 and from the absence of changes in cell morphology similar to the ones due to cell senescence.
# Wound healing: this is deduced from the effect of inhibiting the production of IL-1β and by the effect of stimulating cell proliferation under standard growth conditions.
# Cytotoxicity: this is deduced from the effect of reducing mitochondrial dehydrogenase activity or from the presence of morphologies characteristic of cell senescence.
# Irritation: this is deduced from the effect of increased production of IL-6 and/or IL-1β under standard growth conditions.
# Said uses in the fields of medicine and cosmetics or the toxic effects of the substances of the invention at a given dosage, for 24 hours, are summarized in Table 1 below.
# [3] = tested on: collagen produced by HDF cells; experiment: Quantity of collagen produced by the cells (elution of Sirius Red)
# [4] = tested on: Human dermal fibroblasts (HDF); experiment: Mitochondrial dehydrogenase activity (WST-1 formazan assay) in HDF cells; details: for Revitalizing agent: 24 hours; for activity at 1 µM / activity at 10 µM: Homo sapiens, Fibroblast, read-out: % mitochondrial dehydrogenase activity ± SD; for mitochondrial dehydrogenase activity (effect in words): fibroblasts
# Description: Human dermal fibroblasts were used for assay at the 3rd T75 passage.
# Mitochondrial dehydrogenase activity was measured in HDF, HEK and HUVEC cells by means of the formazan assay, using the WST-1 kit from Roche Diagnostic in accordance with the supplier's instructions. Briefly: the reagent was added (10 µl per well), the incubation was carried out for a further 2 hours or 4 hours, and, at the end of this time, the absorbance was read for 1 s at a wavelength of 450 nm in a Perkin Elmer Victor 2 Wallac microplate reader.
# The activity percentage (% mitochondrial dehydrogenase activity) is defined as: % mitochondrial dehydrogenase activity = ((absorbance of treated cells - absorbance of blank) / (absorbance of control - absorbance of blank)) x 100.
# The tests were performed with observations after 18 hours, seeding 8,000 cells per well, and after 42 hours, seeding 2,000 cells per well. Furthermore, in order to better analyze the dose/response curves for dihydroberberine, canadine and stylopine, curves were collected at 11 concentrations by seeding 2,000 cells per well with 46 hours incubation.
# Dose/response curves are plotted at 6 concentrations. The tests were performed with observations after 24 hours, seeding 8,000 cells per well.
# HDF cells [5] = experiment: Evaluation of cell proliferation (counting of Sirius Red stained cells in photographs); details: 24 hours
# [6] = Dose 1 µm (coptisine: 1 pm [sic])
structure (smiles),measurement,setting,value
c1c2c(cc3c1OCO3)-c1cc3ccc4c(c3c[n+]1CC2)OCO4 [coptisine],IL-1β ng/(ml* No. of cells from photo) ± SD,"interleukin 1β (IL-1β); 1 µM, 34 ng/ml TGF-β1",207±8 ng/(ml* No. of cells from photo)
same,IL-1β ng/(ml* No. of cells from photo) ± SD,"interleukin 1β (IL-1β); 1 µM, 100 µM H2O2",174±20 ng/(ml* No. of cells from photo)
same,IL-1β ng/(ml* No. of cells from photo) ± SD,"interleukin 1β (IL-1β); 1 µM, Standard conditions",137±12 ng/(ml* No. of cells from photo)
same,IL-1β ng/(ml* No. of cells from photo) ± SD,"interleukin 1β (IL-1β); 10 µM, 34 ng/ml TGF-β1",267±15 ng/(ml* No. of cells from photo)
same,IL-1β ng/(ml* No. of cells from photo) ± SD,"interleukin 1β (IL-1β); 10 µM, 100 µM H2O2",236±8 ng/(ml* No. of cells from photo)
same,IL-1β ng/(ml* No. of cells from photo) ± SD,"interleukin 1β (IL-1β); 10 µM, Standard conditions",155±7 ng/(ml* No. of cells from photo)
same,IL-1β production (effect in words),interleukin 1β (IL-1β); 34 ng/ml TGF-β1,tendency to increase IL-1β production in a dose-dependent manner
same,IL-1β production (effect in words),interleukin 1β (IL-1β); 100 µM H2O2,tendency to increase IL-1β production in a dose-dependent manner
same,IL-1β production (effect in words),interleukin 1β (IL-1β); standard conditions,tendency to increase IL-1β production in a dose-dependent manner
same,IL-6 ng/(ml* No. of cells from photo) ± SD,"interleukin 6 (IL-6); 1 µM, 34 ng/ml TGF-β1",1027±36 ng/(ml* No. of cells from photo)
same,IL-6 ng/(ml* No. of cells from photo) ± SD,"interleukin 6 (IL-6); 1 µM, 100 µM H2O2",1034±27 ng/(ml* No. of cells from photo)
same,IL-6 ng/(ml* No. of cells from photo) ± SD,"interleukin 6 (IL-6); 1 µM, Standard conditions",612±31 ng/(ml* No. of cells from photo)
same,IL-6 ng/(ml* No. of cells from photo) ± SD,"interleukin 6 (IL-6); 10 µM, 34 ng/ml TGF-β1",1244±58 ng/(ml* No. of cells from photo)
same,IL-6 ng/(ml* No. of cells from photo) ± SD,"interleukin 6 (IL-6); 10 µM, 100 µM H2O2",1710±114 ng/(ml* No. of cells from photo)
same,IL-6 ng/(ml* No. of cells from photo) ± SD,"interleukin 6 (IL-6); 10 µM, Standard conditions",751±93 ng/(ml* No. of cells from photo)
same,IL-6 production (effect in words),interleukin 6 (IL-6); 34 ng/ml TGF-β1,tendency to increase IL-6 production in a dose-dependent manner
same,IL-6 production (effect in words),interleukin 6 (IL-6); 100 µM H2O2,tendency to increase IL-6 production in a dose-dependent manner
same,IL-6 production (effect in words),interleukin 6 (IL-6); standard conditions,tendency to increase IL-6 production in a dose-dependent manner
same,% DPPH activity,"[1]; 1 mM, 30 minutes",114%
same,Anti-radical (skin protective),[1]; [6],No
same,Anti-radical (skin protective),[1]; Dose 10 µm,No
same,"Anti-fibrotic (prevention of scar formation, also from acne)",HDF cells [2]; [6],No
same,"Cytoprotective (antioxidant, anti-inflammatory and anti-ageing; useful also in the treatment of acne)",HDF cells [2]; [6],No
same,Cytotoxic,HDF cells [2]; [6],No
same,Irritant,HDF cells [2]; [6],"Yes (↑IL-6, ↑IL-1β)"
same,Wound-healing,HDF cells [2]; [6],No
same,"Anti-fibrotic (prevention of scar formation, also from acne)",HDF cells [2]; Dose 10 µm,No
same,"Cytoprotective (antioxidant, anti-inflammatory and anti-ageing; useful also in the treatment of acne)",HDF cells [2]; Dose 10 µm,No
same,Cytotoxic,HDF cells [2]; Dose 10 µm,No
same,Irritant,HDF cells [2]; Dose 10 µm,"Yes (↑IL-6, ↑IL-1β)"
same,Wound-healing,HDF cells [2]; Dose 10 µm,No
same,concentrations at which toxic (irritant) effects are shown,HDF cells [2]; exposure for 24 hours,greater than or equal to 1 µM
same,collagen production (effect in words),"[3]; 1-10 µM (1 µM and 10 µM), 34 ng/ml TGF-β1",stimulates collagen production in a dose-dependent manner
same,collagen production (effect in words),"[3]; 1-10 µM (1 µM and 10 µM), 100 µM H2O2",stimulates collagen production in a dose-dependent manner
same,collagen production (effect in words),"[3]; 1-10 µM, standard conditions",stimulates collagen production in a dose-dependent manner
same,concentrations below which no significant effects on mitochondrial dehydrogenase activity are shown,[4],below 1 µM
same,Revitalizing agent,[4]; [6],No
same,Revitalizing agent,[4]; Dose 10 µm,No
same,activity at 1 µM,[4]; 24 h,84.5 ± 3.17%
same,activity at 10 µM,[4]; 24 h,62.3 ± 11.8%
same,activity at 1 µM,[4]; 42 h,90.1 ± 2.3%
same,activity at 10 µM,[4]; 42 h,139 ± 5.34%
same,mitochondrial dehydrogenase activity (effect in words),"[4]; low dose for a prolonged period of time, to a lesser extent",stimulatory effects
same,mitochondrial dehydrogenase activity (effect in words),[4]; overall,mostly inhibitory effects
same,No. of cells from photo ± SD,"HDF cells [5]; 1 µM, 34 ng/ml TGF-β1",111±18
same,No. of cells from photo ± SD,"HDF cells [5]; 1 µM, 100 µM H2O2",143±17
same,No. of cells from photo ± SD,"HDF cells [5]; 1 µM, Standard conditions",144±12
same,No. of cells from photo ± SD,"HDF cells [5]; 10 µM, 34 ng/ml TGF-β1",86±6
same,No. of cells from photo ± SD,"HDF cells [5]; 10 µM, 100 µM H2O2",114±0
same,No. of cells from photo ± SD,"HDF cells [5]; 10 µM, Standard conditions",129±27
